Data reported in patent US9302999B2, “Substituted triazoles as herbicides” (E. I. DU PONT DE NEMOURS AND COMPANY, priority 2012, dated 2016).

What was measured:
Format in all cases: in vivo
[1] = system: barnyardgrass (Echinochloa crus-galli); assay: Test A pre-/postemergence: barnyardgrass
Method in brief: (§1)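 Visual 0–100 injury ratings (0 no effect, 100 complete control) taken about ten days after treatment, relative to untreated controls. Preemergence treatment was a directed soil spray; postemergence plants were 2–10 cm tall at one- to two-leaf stage. Soil: loam/sand blend.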

[2] = system: crabgrass, large (large crabgrass, Digitaria sanguinalis); assay: Test A pre-/postemergence: crabgrass, large
Method in brief: as §1

[3] = system: pigweed (Amaranthus retroflexus); assay: Test A pre-/postemergence: pigweed
Method in brief: as §1

[4] = system: wheat (Triticum aestivum); assay: Test A pre-/postemergence: wheat
Method in brief: as §1

[5] = system: blackgrass (Alopecurus myosuroides); assay: Test C pre-/postemergence: blackgrass
Method in brief: (§2)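 Visual injury scored 0–100 (100 = complete control) against untreated controls after 13–15 greenhouse days. Surfactant-containing solvent formulations applied either to soil after sowing (loam/sand) or over 1- to 4-leaf plants, 2–18 cm tall.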

corn (Zea mays) = assay: Test C pre-/postemergence: corn
Method in brief: as §2

[6] = system: large crabgrass (Digitaria sanguinalis); assay: Test C pre-/postemergence: large crabgrass
Method in brief: as §2

[7] = system: foxtail, giant (giant foxtail, Setaria faberii); assay: Test C pre-/postemergence: foxtail, giant
Method in brief: as §2

[8] = system: lambsquarters (Chenopodium album); assay: Test C pre-/postemergence: lambsquarters
Method in brief: as §2

[9] = system: morningglory (Ipomoea coccinea); assay: Test C pre-/postemergence: morningglory; conditions: Preemergence
Description: Seeds of plant species selected from blackgrass (Alopecurus myosuroides), bromegrass, downy (downy bromegrass, Bromus tectorum), foxtail, green (green foxtail, Setaria viridis), ryegrass, Italian (Italian ryegrass, Lolium multiflorum), winter wheat (Triticum aestivum), wild oat (Avena fatua), galium (catchweed bedstraw, Galium aparine), bermudagrass (Cynodon dactylon), surinam grass (Brachiaria decumbens), cocklebur (common cocklebur, Xanthium strumarium), corn (Zea mays), large crabgrass (Digitaria sanguinalis), woolly cupgrass (Eriochloa villosa), foxtail, giant (giant foxtail, Setaria faberii), goosegrass (Eleusine indica), johnsongrass (Sorghum halepense), kochia (Kochia scoparia), lambsquarters (Chenopodium album), morningglory (Ipomoea coccinea), nightshade (eastern black nightshade, Solanum ptycanthum), nutsedge, yellow (yellow nutsedge, Cyperus esculentus), pigweed (Amaranthus retroflexus), ragweed (common ragweed, Ambrosia elation), soybean (Glycine max), common (oilseed) sunflower (Helianthus annuus), Russian thistle (Salsola kali) and velvetleaf (Abutilon theophrasti) were planted into a blend of loam soil and sand and treated preemergence with test chemicals formulated in a non-phytotoxic solvent mixture which included a surfactant.
At the same time, plants selected from these crop and weed species and also barley (winter barley, Hordeum vulgare), canarygrass (Phalaris minor), chickweed (common chickweed, Stellaria media) windgrass (Apera spica-venti) and deadnettle (henbit deadnettle, Lamium amplexicaule) were planted in pots containing Redi-Earth® planting medium (Scotts Company, 14111 Scottslawn Road, Marysville, Ohio 43041) comprising spaghnum peat moss, vermiculite, wetting agent and starter nutrients and treated with postemergence applications of test chemicals formulated in the same manner. Plants ranged in height from 2 to 18 cm (1- to 4-leaf stage) for postemergence treatments.
Treated plants and controls were maintained in a greenhouse for 13 to 15 days, after which time all species were compared to controls and visually evaluated. Plant response ratings, summarized in Table C, are based on a scale of 0 to 100 where 0 is no effect and 100 is complete control. A dash (-) response means no test result.

[10] = system: nutsedge, yellow (yellow nutsedge, Cyperus esculentus); assay: Test C pre-/postemergence: nutsedge, yellow
Method in brief: as §2

[11] = Postemergence, 125 g ai/ha, 0 to 100 scale, 0 is no effect, 100 is complete control
[12] = Postemergence, 500 g ai/ha, visual rating on 0 to 100 scale (0 no effect, 100 complete control), approximately ten days
[13] = Preemergence, 125 g ai/ha, 0 to 100 scale where 0 is no effect and 100 is complete control
[14] = Preemergence, 500 g ai/ha, 0 to 100 scale (0 no effect, 100 complete control)
[15] = Preemergence, 31 g ai/ha, scale of 0 to 100, 0 is no effect, 100 is complete control
[16] = Preemergence, 62 g ai/ha, scale of 0 to 100, 0 is no effect, 100 is complete control
[17] = Preemergence, 125 g ai/ha, scale 0 to 100, 0 no effect, 100 complete control
[18] = Preemergence, 250 g ai/ha, scale 0 to 100, 0 no effect, 100 complete control
[19] = 31 g ai/ha, scale of 0 to 100, 0 is no effect, 100 is complete control
[20] = 62 g ai/ha, scale of 0 to 100, 0 is no effect, 100 is complete control
[21] = 125 g ai/ha, scale 0 to 100, 0 no effect, 100 complete control
[22] = 250 g ai/ha, scale 0 to 100, 0 no effect, 100 complete control
[23] = Postemergence, 500 g ai/ha, 0 to 100 scale, 0 is no effect, 100 is complete control
[24] = Preemergence, 125 g ai/ha, 0 to 100 scale (0 no effect, 100 complete control)
[25] = Preemergence, 500 g ai/ha, 0 to 100 scale, 0 is no effect, 100 is complete control
[26] = Postemergence, 31 g ai/ha, scale 0 to 100 (0 no effect, 100 complete control)
[27] = Postemergence, 62 g ai/ha, scale 0 to 100 (0 no effect, 100 complete control)
[28] = Postemergence, 125 g ai/ha, scale 0 to 100, 0 no effect, 100 complete control
[29] = Postemergence, 250 g ai/ha, scale 0 to 100

SMILES: Cc1nn(-c2ccc(F)cc2F)nc1Oc1ccnc(C(F)(F)F)c1 [Compound 146]
- Barnyardgrass plant response rating [1, 11]: 30
- Barnyardgrass plant response rating [1, 12]: 90
- Plant response rating, Barnyardgrass [1, 13]: 90
- Plant response rating, Barnyardgrass [1, 14]: 100
- Crabgrass, Large plant response rating [2, 11]: 80
- Crabgrass, Large plant response rating [2, 12]: 90
- Plant response rating, Crabgrass, Large [2, 13]: 100
- Plant response rating, Crabgrass, Large [2, 14]: 100
- Plant response rating, Pigweed [3, 11]: 100
- Pigweed plant response rating [3, 12]: 100
- Plant response rating, Pigweed [3, 13]: 100
- Plant response rating, Pigweed [3, 14]: 100
- Plant response rating, Wheat [4, 11]: 10
- Wheat plant response rating [4, 12]: 30
- Plant response rating, Wheat [4, 13]: 0
- Plant response rating, Wheat [4, 14]: 30
- Plant response rating, Blackgrass [5, 15]: 50
- Plant response rating, Blackgrass [5, 16]: 70
- Plant response rating, Blackgrass [5, 17]: 90
- Plant response rating, Blackgrass [5, 18]: 90
- Plant response rating, Corn (corn (Zea mays); [15]): 0
- Plant response rating, Corn (corn (Zea mays); [16]): 0
- Plant response rating, Corn (corn (Zea mays); [17]): 15
- Plant response rating, Corn (corn (Zea mays); [18]): 25
- Plant response rating, Crabgrass, Large [6, 15]: 98
- Plant response rating, Crabgrass, Large [6, 16]: 100
- Plant response rating, Crabgrass, Large [6, 17]: 100
- Plant response rating, Crabgrass, Large [6, 18]: 100
- Plant response rating, Foxtail, Giant [7, 15]: 40
- Plant response rating, Foxtail, Giant [7, 16]: 100
- Plant response rating, Foxtail, Giant [7, 17]: 100
- Plant response rating, Foxtail, Giant [7, 18]: 100
- Plant response rating, Lambsquarters [8, 15]: 10
- Plant response rating, Lambsquarters [8, 16]: 40
- Plant response rating, Lambsquarters [8, 17]: 85
- Plant response rating, Lambsquarters [8, 18]: 95
- Plant response rating, Morningglory [9, 19]: 35
- Plant response rating, Morningglory [9, 20]: 40
- Plant response rating, Morningglory [9, 21]: 45
- Plant response rating, Morningglory [9, 22]: 90
- Plant response rating, Nutsedge, Yellow [10, 15]: 0
- Plant response rating, Nutsedge, Yellow [10, 16]: 0
- Plant response rating, Nutsedge, Yellow [10, 18]: 10

SMILES: CCOCc1nn(-c2ccc(F)cc2)nc1Oc1ccnc(C(F)(F)F)c1 [Compound 163]
- Plant response rating, Barnyardgrass [1, 11]: 70
- Barnyardgrass plant response rating [1, 23]: 100
- Plant response rating, Barnyardgrass [1, 13]: 90
- Plant response rating, Barnyardgrass [1, 14]: 100
- Plant response rating, Crabgrass, Large [2, 11]: 70
- Crabgrass, Large plant response rating [2, 23]: 100
- Plant response rating, Crabgrass, Large [2, 13]: 100
- Plant response rating, Crabgrass, Large [2, 14]: 100
- Plant response rating, Pigweed [3, 11]: 100
- Pigweed plant response rating [3, 23]: 100
- Plant response rating, Pigweed [3, 13]: 100
- Plant response rating, Pigweed [3, 14]: 100
- Plant response rating, Wheat [4, 11]: 20
- Wheat plant response rating [4, 23]: 40
- Plant response rating, Wheat [4, 13]: 0
- Plant response rating, Wheat [4, 14]: 0
- Plant response rating, Blackgrass [5, 15]: 5
- Plant response rating, Blackgrass [5, 16]: 85
- Plant response rating, Blackgrass [5, 17]: 90
- Plant response rating, Blackgrass [5, 18]: 95
- Plant response rating, Corn (corn (Zea mays); [15]): 10
- Plant response rating, Corn (corn (Zea mays); [16]): 10
- Plant response rating, Corn (corn (Zea mays); [18]): 10
- Plant response rating, Crabgrass, Large [6, 15]: 65
- Plant response rating, Crabgrass, Large [6, 16]: 100
- Plant response rating, Crabgrass, Large [6, 17]: 100
- Plant response rating, Crabgrass, Large [6, 18]: 100
- Plant response rating, Foxtail, Giant [7, 15]: 40
- Plant response rating, Foxtail, Giant [7, 16]: 60
- Plant response rating, Foxtail, Giant [7, 17]: 80
- Plant response rating, Foxtail, Giant [7, 18]: 100
- Plant response rating, Morningglory [9, 19]: 20
- Plant response rating, Morningglory [9, 20]: 25
- Plant response rating, Morningglory [9, 21]: 30
- Plant response rating, Morningglory [9, 22]: 75
- Plant response rating, Nutsedge, Yellow [10, 15]: 0
- Plant response rating, Nutsedge, Yellow [10, 16]: 0
- Plant response rating, Nutsedge, Yellow [10, 17]: 20
- Plant response rating, Nutsedge, Yellow [10, 18]: 75

SMILES: FC(F)(F)c1ccc(-n2nc(Cl)c(Cc3ccnc(C(F)(F)F)c3)n2)cc1 [Compound 28]
- Barnyardgrass plant response rating [1, 11]: 70
- Barnyardgrass plant response rating [1, 12]: 90
- Plant response rating, Barnyardgrass [1, 24]: 50
- Plant response rating, Barnyardgrass [1, 25]: 90
- Crabgrass, Large plant response rating [2, 11]: 70
- Crabgrass, Large plant response rating [2, 12]: 90
- Plant response rating, Crabgrass, Large [2, 24]: 30
- Plant response rating, Crabgrass, Large [2, 25]: 90
- Pigweed plant response rating [3, 11]: 100
- Pigweed plant response rating [3, 12]: 100
- Plant response rating, Pigweed [3, 24]: 100
- Plant response rating, Pigweed [3, 25]: 100
- Wheat plant response rating [4, 11]: 40
- Wheat plant response rating [4, 12]: 50
- Plant response rating, Wheat [4, 24]: 0
- Plant response rating, Wheat [4, 25]: 20
- Plant response rating, Blackgrass [5, 26]: 10
- Plant response rating, Blackgrass [5, 27]: 10
- Plant response rating, Blackgrass [5, 28]: 55
- Plant response rating, Blackgrass [5, 29]: 60
- Plant response rating, Corn (corn (Zea mays); [26]): 15
- Plant response rating, Corn (corn (Zea mays); [27]): 20
- Plant response rating, Corn (corn (Zea mays); [28]): 25
- Plant response rating, Corn (corn (Zea mays); [29]): 25
- Plant response rating, Crabgrass, Large [6, 26]: 10
- Plant response rating, Crabgrass, Large [6, 27]: 15
- Plant response rating, Crabgrass, Large [6, 28]: 20
- Plant response rating, Crabgrass, Large [6, 29]: 25
- Plant response rating, Foxtail, Giant [7, 26]: 35
- Plant response rating, Foxtail, Giant [7, 27]: 35
- Plant response rating, Foxtail, Giant [7, 28]: 35
- Plant response rating, Foxtail, Giant [7, 29]: 50
- Plant response rating, Lambsquarters [8, 26]: 35
- Plant response rating, Lambsquarters [8, 27]: 35
- Plant response rating, Lambsquarters [8, 28]: 95
- Plant response rating, Lambsquarters [8, 29]: 95
- Plant response rating, Nutsedge, Yellow [10, 26]: 5
- Plant response rating, Nutsedge, Yellow [10, 27]: 5
- Plant response rating, Nutsedge, Yellow [10, 28]: 15
- Plant response rating, Nutsedge, Yellow [10, 29]: 25
